Source: the NIST ThermoML archive (doi:10.1021/je034290l)

Legend:
[1] = xn = mol fraction of the nth substance listed; conditions: 101.32 kPa, Liquid
[2] = excess molar enthalpy (molar enthalpy of mixing); xn = mol fraction of the nth substance listed; conditions: 101.32 kPa, Liquid, Calvet calorimetry

COC(C)=O [methyl ethanoate] + CC(C)(C)O
Conditions	excess molar enthalpy [kcal/mol]	excess molar volume [m3/mol]
[1], 303.15 K, x1 = 0.0451	–	1.65e-07
[1], 303.15 K, x1 = 0.0901	–	3.35e-07
[1], 303.15 K, x1 = 0.1537	–	5.06e-07
[1], 303.15 K, x1 = 0.1973	–	6.07e-07
[1], 303.15 K, x1 = 0.2481	–	7.02e-07
[1], 303.15 K, x1 = 0.2631	–	7.32e-07
[1], 303.15 K, x1 = 0.3042	–	8.09e-07
[1], 303.15 K, x1 = 0.3448	–	8.49e-07
[1], 303.15 K, x1 = 0.3957	–	8.87e-07
[1], 303.15 K, x1 = 0.4411	–	9.04e-07
[1], 303.15 K, x1 = 0.4445	–	8.99e-07
[1], 303.15 K, x1 = 0.4964	–	8.92e-07
[1], 303.15 K, x1 = 0.5515	–	8.74e-07
[1], 303.15 K, x1 = 0.5677	–	8.68e-07
[1], 303.15 K, x1 = 0.5954	–	8.5e-07
[1], 303.15 K, x1 = 0.6467	–	7.94e-07
[1], 303.15 K, x1 = 0.6956	–	7.42e-07
[1], 303.15 K, x1 = 0.7432	–	6.59e-07
[1], 303.15 K, x1 = 0.8016	–	5.54e-07
[1], 303.15 K, x1 = 0.8477	–	4.63e-07
[1], 303.15 K, x1 = 0.9067	–	3.28e-07
[1], 303.15 K, x1 = 0.9465	–	2.17e-07
[1], 318.15 K, x1 = 0.102	–	3.93e-07
[1], 318.15 K, x1 = 0.165	–	5.61e-07
[1], 318.15 K, x1 = 0.2168	–	6.84e-07
[1], 318.15 K, x1 = 0.2804	–	7.71e-07
[1], 318.15 K, x1 = 0.349	–	8.76e-07
[1], 318.15 K, x1 = 0.4031	–	9.16e-07
[1], 318.15 K, x1 = 0.4596	–	9.41e-07
[1], 318.15 K, x1 = 0.5227	–	9.15e-07
[1], 318.15 K, x1 = 0.5784	–	8.91e-07
[1], 318.15 K, x1 = 0.6398	–	8.5e-07
[1], 318.15 K, x1 = 0.6786	–	8.06e-07
[1], 318.15 K, x1 = 0.7422	–	7.18e-07
[1], 318.15 K, x1 = 0.7969	–	5.7e-07
[1], 318.15 K, x1 = 0.8256	–	5.31e-07
[1], 318.15 K, x1 = 0.9077	–	3.01e-07
[1], 318.15 K, x1 = 0.9496	–	1.86e-07
[2], 299.15 K, x1 = 0.0671	0.126	–
[2], 299.15 K, x1 = 0.1369	0.238	–
[2], 299.15 K, x1 = 0.2113	0.341	–
[2], 299.15 K, x1 = 0.2812	0.417	–
[2], 299.15 K, x1 = 0.3492	0.472	–
[2], 299.15 K, x1 = 0.4106	0.504	–
[2], 299.15 K, x1 = 0.4675	0.519	–
[2], 299.15 K, x1 = 0.4928	0.522	–
[2], 299.15 K, x1 = 0.5304	0.524	–
[2], 299.15 K, x1 = 0.5753	0.517	–
[2], 299.15 K, x1 = 0.6226	0.5	–
[2], 299.15 K, x1 = 0.6741	0.47	–
[2], 299.15 K, x1 = 0.7293	0.427	–
[2], 299.15 K, x1 = 0.7866	0.368	–
[2], 299.15 K, x1 = 0.8439	0.292	–
[2], 299.15 K, x1 = 0.9019	0.201	–
[2], 299.15 K, x1 = 0.9551	0.107	–
[2], 318.15 K, x1 = 0.071	0.113	–
[2], 318.15 K, x1 = 0.1469	0.216	–
[2], 318.15 K, x1 = 0.2304	0.311	–
[2], 318.15 K, x1 = 0.3022	0.382	–
[2], 318.15 K, x1 = 0.3713	0.434	–
[2], 318.15 K, x1 = 0.4322	0.471	–
[2], 318.15 K, x1 = 0.4898	0.49	–
[2], 318.15 K, x1 = 0.5407	0.492	–
[2], 318.15 K, x1 = 0.5865	0.485	–
[2], 318.15 K, x1 = 0.6105	0.475	–
[2], 318.15 K, x1 = 0.6585	0.451	–
[2], 318.15 K, x1 = 0.711	0.414	–
[2], 318.15 K, x1 = 0.7628	0.367	–
[2], 318.15 K, x1 = 0.817	0.308	–
[2], 318.15 K, x1 = 0.8636	0.242	–
[2], 318.15 K, x1 = 0.9085	0.174	–
[2], 318.15 K, x1 = 0.9567	0.0889	–
